# Results from US20260053811A1, “METHODS OF TREATING HYPERTENSION IN OBESE SUBJECTS” (Mineralys Therapeutics, Inc., priority 2022, published 2026).
# Test system: hypertensive subjects
# Experiment: Estimated glomerular filtration rate (eGFR, CKD-EPI equation)
# Assay type: in vivo, human
# Conditions: Part 1
# Description: In contrast, mean eGFR for the Placebo group was relatively stable throughout treatment, reaching a mean maximal reduction of −2.80 mL/min/1.73 m^2 at Week 2 (range: −0.83 mL/min/1.73 m^2 to −2.80 mL/min/1.73 m^2). Estimated glomerular filtration rate was estimated using the CKD-EPI equation.
smiles,measurement,setting,value
CC(=O)N[C@H]1CC[C@H](NC(=O)CN2CCN(c3nncc(-c4ccc(C)cc4)n3)CC2)CC1 [Compound A HBr],eGFR mean maximum decline relative to baseline,"100 mg QD, Week 2",10.91 mL/min/1.73 m^2
same,"Estimated Glomerular Filtration Rate, Mean (SD) Change from Baseline","Week 1, 12.5 mg BID",−2.25 (8.42) mL/min/1.73 m^2
same,"Estimated Glomerular Filtration Rate, Mean (SD) Observed","Week 1, 12.5 mg BID",79.45 (15.19) mL/min/1.73 m^2
same,"Estimated Glomerular Filtration Rate, Mean (SD) Change from Baseline","Week 1, 12.5 mg QD",−4.30 (7.14) mL/min/1.73 m^2
same,"Estimated Glomerular Filtration Rate, Mean (SD) Observed","Week 1, 12.5 mg QD",73.57 (20.33) mL/min/1.73 m^2
same,"Estimated Glomerular Filtration Rate, Mean (SD) Change from Baseline","Week 1, 25 mg BID",−6.85 (8.88) mL/min/1.73 m^2
same,"Estimated Glomerular Filtration Rate, Mean (SD) Observed","Week 1, 25 mg BID",74.00 (13.13) mL/min/1.73 m^2
same,"Estimated Glomerular Filtration Rate, Mean (SD) Change from Baseline","Week 1, 50 mg QD",−2.96 (8.52) mL/min/1.73 m^2
same,"Estimated Glomerular Filtration Rate, Mean (SD) Observed","Week 1, 50 mg QD",74.21 (16.88) mL/min/1.73 m^2
same,"Estimated Glomerular Filtration Rate, Mean (SD) Change from Baseline","Week 1, 100 mg QD",−6.80 (10.03) mL/min/1.73 m^2
same,"Estimated Glomerular Filtration Rate, Mean (SD) Observed","Week 1, 100 mg QD",70.81 (17.66) mL/min/1.73 m^2
same,"Estimated Glomerular Filtration Rate, Mean (SD) Change from Baseline","Week 2, 12.5 mg BID",−3.69 (6.46) mL/min/1.73 m^2
same,"Estimated Glomerular Filtration Rate, Mean (SD) Observed","Week 2, 12.5 mg BID",78.86 (18.56) mL/min/1.73 m^2
same,"Estimated Glomerular Filtration Rate, Mean (SD) Change from Baseline","Week 2, 12.5 mg QD",−4.87 (5.03) mL/min/1.73 m^2
same,"Estimated Glomerular Filtration Rate, Mean (SD) Observed","Week 2, 12.5 mg QD",73.00 (20.81) mL/min/1.73 m^2
same,"Estimated Glomerular Filtration Rate, Mean (SD) Change from Baseline","Week 2, 25 mg BID",−5.42 (10.01) mL/min/1.73 m^2
same,"Estimated Glomerular Filtration Rate, Mean (SD) Observed","Week 2, 25 mg BID",75.43 (15.32) mL/min/1.73 m^2
same,"Estimated Glomerular Filtration Rate, Mean (SD) Change from Baseline","Week 2, 50 mg QD",−4.32 (9.06) mL/min/1.73 m^2
same,"Estimated Glomerular Filtration Rate, Mean (SD) Observed","Week 2, 50 mg QD",72.86 (16.55) mL/min/1.73 m^2
same,"Estimated Glomerular Filtration Rate, Mean (SD) Change from Baseline","Week 2, 100 mg QD",−10.91 (8.57) mL/min/1.73 m^2
same,"Estimated Glomerular Filtration Rate, Mean (SD) Observed","Week 2, 100 mg QD",65.56 (17.66) mL/min/1.73 m^2
same,"Estimated Glomerular Filtration Rate, Mean (SD) Change from Baseline","Week 3, 12.5 mg BID",−5.17 (8.54) mL/min/1.73 m^2
same,"Estimated Glomerular Filtration Rate, Mean (SD) Observed","Week 3, 12.5 mg BID",77.38 (16.68) mL/min/1.73 m^2
same,"Estimated Glomerular Filtration Rate, Mean (SD) Change from Baseline","Week 3, 12.5 mg QD",−2.05 (6.43) mL/min/1.73 m^2
same,"Estimated Glomerular Filtration Rate, Mean (SD) Observed","Week 3, 12.5 mg QD",77.21 (20.38) mL/min/1.73 m^2
same,"Estimated Glomerular Filtration Rate, Mean (SD) Change from Baseline","Week 3, 25 mg BID",−5.90 (8.63) mL/min/1.73 m^2
same,"Estimated Glomerular Filtration Rate, Mean (SD) Observed","Week 3, 25 mg BID",75.07 (11.95) mL/min/1.73 m^2
same,"Estimated Glomerular Filtration Rate, Mean (SD) Change from Baseline","Week 3, 50 mg QD",−2.35 (8.51) mL/min/1.73 m^2
same,"Estimated Glomerular Filtration Rate, Mean (SD) Observed","Week 3, 50 mg QD",74.81 (15.62) mL/min/1.73 m^2
same,"Estimated Glomerular Filtration Rate, Mean (SD) Change from Baseline","Week 3, 100 mg QD",−9.24 (10.99) mL/min/1.73 m^2
same,"Estimated Glomerular Filtration Rate, Mean (SD) Observed","Week 3, 100 mg QD",67.22 (19.24) mL/min/1.73 m^2
same,"Estimated Glomerular Filtration Rate, Mean (SD) Change from Baseline","Week 4, 12.5 mg BID",−6.58 (9.17) mL/min/1.73 m^2
same,"Estimated Glomerular Filtration Rate, Mean (SD) Observed","Week 4, 12.5 mg BID",76.30 (18.28) mL/min/1.73 m^2
same,"Estimated Glomerular Filtration Rate, Mean (SD) Change from Baseline","Week 4, 12.5 mg QD",−5.45 (6.37) mL/min/1.73 m^2
same,"Estimated Glomerular Filtration Rate, Mean (SD) Observed","Week 4, 12.5 mg QD",73.40 (19.29) mL/min/1.73 m^2
same,"Estimated Glomerular Filtration Rate, Mean (SD) Change from Baseline","Week 4, 25 mg BID",−6.69 (8.97) mL/min/1.73 m^2
same,"Estimated Glomerular Filtration Rate, Mean (SD) Observed","Week 4, 25 mg BID",73.48 (15.26) mL/min/1.73 m^2
same,"Estimated Glomerular Filtration Rate, Mean (SD) Change from Baseline","Week 4, 50 mg QD",−3.61 (9.24) mL/min/1.73 m^2
same,"Estimated Glomerular Filtration Rate, Mean (SD) Observed","Week 4, 50 mg QD",73.63 (16.75) mL/min/1.73 m^2
same,"Estimated Glomerular Filtration Rate, Mean (SD) Change from Baseline","Week 4, 100 mg QD",−9.46 (12.53) mL/min/1.73 m^2
same,"Estimated Glomerular Filtration Rate, Mean (SD) Observed","Week 4, 100 mg QD",67.23 (19.70) mL/min/1.73 m^2
same,"Estimated Glomerular Filtration Rate, Mean (SD) Change from Baseline","Week 5, 12.5 mg BID",−7.58 (8.00) mL/min/1.73 m^2
same,"Estimated Glomerular Filtration Rate, Mean (SD) Observed","Week 5, 12.5 mg BID",73.84 (20.78) mL/min/1.73 m^2
same,"Estimated Glomerular Filtration Rate, Mean (SD) Change from Baseline","Week 5, 12.5 mg QD",−3.60 (5.70) mL/min/1.73 m^2
same,"Estimated Glomerular Filtration Rate, Mean (SD) Observed","Week 5, 12.5 mg QD",75.25 (19.58) mL/min/1.73 m^2
same,"Estimated Glomerular Filtration Rate, Mean (SD) Change from Baseline","Week 5, 25 mg BID",−7.41 (9.65) mL/min/1.73 m^2
same,"Estimated Glomerular Filtration Rate, Mean (SD) Observed","Week 5, 25 mg BID",73.25 (14.75) mL/min/1.73 m^2
same,"Estimated Glomerular Filtration Rate, Mean (SD) Change from Baseline","Week 5, 50 mg QD",−4.10 (9.61) mL/min/1.73 m^2
same,"Estimated Glomerular Filtration Rate, Mean (SD) Observed","Week 5, 50 mg QD",70.58 (13.23) mL/min/1.73 m^2
same,"Estimated Glomerular Filtration Rate, Mean (SD) Change from Baseline","Week 5, 100 mg QD",−10.50 (10.94) mL/min/1.73 m^2
same,"Estimated Glomerular Filtration Rate, Mean (SD) Observed","Week 5, 100 mg QD",66.19 (19.58) mL/min/1.73 m^2
same,"Estimated Glomerular Filtration Rate, Mean (SD) Change from Baseline","Week 6, 12.5 mg BID",−6.45 (8.05) mL/min/1.73 m^2
same,"Estimated Glomerular Filtration Rate, Mean (SD) Observed","Week 6, 12.5 mg BID",74.70 (16.86) mL/min/1.73 m^2
same,"Estimated Glomerular Filtration Rate, Mean (SD) Change from Baseline","Week 6, 12.5 mg QD",−6.28 (6.77) mL/min/1.73 m^2
same,"Estimated Glomerular Filtration Rate, Mean (SD) Observed","Week 6, 12.5 mg QD",73.39 (20.48) mL/min/1.73 m^2
same,"Estimated Glomerular Filtration Rate, Mean (SD) Change from Baseline","Week 6, 25 mg BID",−8.02 (9.17) mL/min/1.73 m^2
same,"Estimated Glomerular Filtration Rate, Mean (SD) Observed","Week 6, 25 mg BID",72.64 (15.33) mL/min/1.73 m^2
same,"Estimated Glomerular Filtration Rate, Mean (SD) Change from Baseline","Week 6, 50 mg QD",−2.83 (8.61) mL/min/1.73 m^2
same,"Estimated Glomerular Filtration Rate, Mean (SD) Observed","Week 6, 50 mg QD",74.63 (16.59) mL/min/1.73 m^2
same,"Estimated Glomerular Filtration Rate, Mean (SD) Change from Baseline","Week 6, 100 mg QD",−9.94 (12.91) mL/min/1.73 m^2
same,"Estimated Glomerular Filtration Rate, Mean (SD) Observed","Week 6, 100 mg QD",66.19 (21.44) mL/min/1.73 m^2
same,"Estimated Glomerular Filtration Rate, Mean (SD) Change from Baseline","Week 7, 12.5 mg BID",−7.03 (8.98) mL/min/1.73 m^2
same,"Estimated Glomerular Filtration Rate, Mean (SD) Observed","Week 7, 12.5 mg BID",75.85 (21.29) mL/min/1.73 m^2
same,"Estimated Glomerular Filtration Rate, Mean (SD) Change from Baseline","Week 7, 12.5 mg QD",−7.17 (8.80) mL/min/1.73 m^2
same,"Estimated Glomerular Filtration Rate, Mean (SD) Observed","Week 7, 12.5 mg QD",72.50 (22.45) mL/min/1.73 m^2
same,"Estimated Glomerular Filtration Rate, Mean (SD) Change from Baseline","Week 7, 25 mg BID",−7.85 (9.47) mL/min/1.73 m^2
same,"Estimated Glomerular Filtration Rate, Mean (SD) Observed","Week 7, 25 mg BID",72.22 (13.89) mL/min/1.73 m^2
same,"Estimated Glomerular Filtration Rate, Mean (SD) Change from Baseline","Week 7, 50 mg QD",−5.46 (10.42) mL/min/1.73 m^2
same,"Estimated Glomerular Filtration Rate, Mean (SD) Observed","Week 7, 50 mg QD",69.68 (12.23) mL/min/1.73 m^2
same,"Estimated Glomerular Filtration Rate, Mean (SD) Change from Baseline","Week 7, 100 mg QD",−9.50 (12.17) mL/min/1.73 m^2
same,"Estimated Glomerular Filtration Rate, Mean (SD) Observed","Week 7, 100 mg QD",66.96 (21.02) mL/min/1.73 m^2
same,"Estimated Glomerular Filtration Rate, Mean (SD) Change from Baseline","Week 8, 12.5 mg BID",−6.66 (7.92) mL/min/1.73 m^2
